The values below come from EP4562003B1, “NOVEL 7-SUBSTITUTED INDOLE SULFONAMIDE DERIVATIVES” (F. Hoffmann-La Roche AG, priority 2022, dated 2024).

This test deals with human GPR17 short isoform (Homo sapiens, UniProt Q13304). Briefly: GPR17 cAMP assay (TR-FRET cAMP quantification, antagonist mode). The format is cell-based. The note with it: CHO-K1 cells stably expressing human GPR17 short isoform; EC80 of agonist MDL29,951; forskolin 15µM; IBMX 0.5mM; 30 minutes at room temperature; read-out: hGPR17 cAMP IC50. As to the method:
GPR17 cAMP Assay Protocol:
CHO-K1 cells stably expressing vector containing untagged human GPR17 short isoform (Roche) were cultured at 37°C / 5% CO2 in DMEM (Dulbecco's Modified Eagle Medium):F-12 (1:1) supplemented with 10% foetal bovine serum and 400 µg/ml Geneticin.
Changes in intracellular cyclic adenosine monophosphate (cAMP) levels were quantified using the Nano-TRF Detection Assay kit (Roche Diagnostics, Cat. No. 05214386001). This assay allows for direct cAMP quantification in a homogeneous solution. cAMP is detected based on time-resolved fluorescence energy transfer (TR-FRET) and competitive binding of ruthenylated cAMP and endogenous cAMP to an anti-cAMP monoclonal antibody labeled with AlexaFluor-700. The Ruthenium complex serves as the FRET donor and transfers energy to AlexaFluor-700. The FRET signal is inversely proportional to the cAMP concentration.
CHO-GPR17S cells were detached with Accutase and resuspended in assay buffer consisting of Hank's Balanced Salt Solution (HBSS), 10mM HEPES (4-(2-hydroxyethyl) piperazine-1-ethanesulfonic acid solution) and 0.1% bovine serum albumin (pH 7.4). The cells were seeded in black 384-well plates (Corning) at a density of 10'000 cells / 20µl assay buffer until the addition of compounds.
Test antagonist compounds were serially diluted in dimethyl sulfoxide (DMSO) and spotted in 384-well plates. The compounds were then diluted in HBSS buffer supplemented with an EC80 concentration of MDL29,951 (3-(2-Carboxy-4,6-dichloroindol-3-yl)propionic acid) (GPR17 agonist) plus 3-Isobutyl-1-methylxanthine (IBMX) (0.5mM final concentration) and added to the cells at room temperature. Forskolin (15µM final concentration) was added 5 minutes after the test compounds and the cells were incubated at room temperature for 30 minutes. The assay was stopped by adding cAMP detection mix (containing detergents for cell lysis) for 90 minutes at room temperature.
Cellular cAMP was measured using a Paradigm reader (Molecular Devices). The raw data was used to calculate the FRET signal based on the assay's P-factor as per cAMP kit instructions. The data was normalized to the maximal activity of a reference antagonist and dose response curves were fitted to the percent activity of the test compounds using a sigmoidal dose response model (Genedata Screener).
Results in the hGPR17 cAMP assay are provided for compounds of formula I in Table 1 Table 1: […]

Chain of human GPR17 short isoform (Q13304 29-367): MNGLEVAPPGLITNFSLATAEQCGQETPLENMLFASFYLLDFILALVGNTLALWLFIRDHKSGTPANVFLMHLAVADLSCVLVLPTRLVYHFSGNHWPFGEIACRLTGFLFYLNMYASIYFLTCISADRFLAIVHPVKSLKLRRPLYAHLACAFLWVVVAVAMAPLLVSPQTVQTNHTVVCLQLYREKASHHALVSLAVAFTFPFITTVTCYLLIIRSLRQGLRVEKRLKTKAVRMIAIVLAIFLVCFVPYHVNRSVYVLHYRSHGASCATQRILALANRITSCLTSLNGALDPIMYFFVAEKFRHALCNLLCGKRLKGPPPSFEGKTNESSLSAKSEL

One may read the IC50 as the midpoint of a concentration-inhibition curve. In the case of `COc1nc(NS(=O)(=O)c2c[nH]c3c(-c4ncccn4)c(C)ccc23)nc(OC)c1OC(F)F` [Example 55, N-[5-(difluoromethoxy)-4,6-dimethoxy-pyrimidin-2-yl]-6-methyl-7-(2-pyrimidyl)-1H-indole-3-sulfonamide], the IC50 was 157 nM.

Consider `COc1nc(NS(=O)(=O)c2c[nH]c3c(-c4ncccn4)c(C)ccc23)nc(OC)c1OCCF` [Example 56, N-[5-(2-fluoroethoxy)-4,6-dimethoxy-pyrimidin-2-yl]-6-methyl-7-(2-pyrimidyl)-1H-indole-3-sulfonamide], for which the IC50 turned out to be 129 nM.

For the compound `COc1nc(NS(=O)(=O)c2c[nH]c3c(-c4cccnn4)c(C)ccc23)nc(OC)c1OCC(F)F` [Example 57, N-[5-(2,2-difluoroethoxy)-4,6-dimethoxy-pyrimidin-2-yl]-6-methyl-7-pyridazin-3-yl-1H-indole-3-sulfonamide], the IC50 was determined as 109 nM.

Regarding `COc1nc(NS(=O)(=O)c2c[nH]c3c(-c4cnccn4)c(C)ccc23)nc(OC)c1OCC(F)F` [Example 58, N-[5-(2,2-difluoroethoxy)-4,6-dimethoxy-pyrimidin-2-yl]-6-methyl-7-pyrazin-2-yl-1H-indole-3-sulfonamide], the IC50 stood at 51 nM.

As to `COc1nc(NS(=O)(=O)c2c[nH]c3c(-c4cnccn4)c(C)ccc23)nc(OC)c1OC(F)F` [Example 59, N-[5-(difluoromethoxy)-4,6-dimethoxy-pyrimidin-2-yl]-6-methyl-7-pyrazin-2-yl-1H-indole-3-sulfonamide], the half-inhibitory concentration (IC50) was determined as 68 nM.

As to `COc1nc(NS(=O)(=O)c2c[nH]c3c(-c4ncccn4)c(Cl)c(F)cc23)nc(OC)c1OCC(F)F` [Example 60, 6-chloro-N-[5-(2,2-difluoroethoxy)-4,6-dimethoxy-pyrimidin-2-yl]-5-fluoro-7-(2-pyrimidyl)-1H-indole-3-sulfonamide], the IC50 turned out to be 121 nM.

Consider `COc1nc(NS(=O)(=O)c2c[nH]c3c(-c4ccn(C)n4)c(Cl)ccc23)nc(OC)c1OCC(F)F` [Example 61, 6-chloro-N-[5-(2,2-difluoroethoxy)-4,6-dimethoxy-pyrimidin-2-yl]-7-(1-methylpyrazol-3-yl)-1H-indole-3-sulfonamide], for which the IC50 is 23 nM.

In the case of `COc1nc(NS(=O)(=O)c2c[nH]c3c(-c4ccnc(C)n4)c(Cl)ccc23)nc(OC)c1OCC(F)F` [Example 62, 6-chloro-N-[5-(2,2-difluoroethoxy)-4,6-dimethoxy-pyrimidin-2-yl]-7-(2-methylpyrimidin-4-yl)-1H-indole-3-sulfonamide], the IC50 was 37 nM.

Turning to `COc1nc(NS(=O)(=O)c2c[nH]c3c(-c4ccc(C)nn4)c(Cl)ccc23)nc(OC)c1OCC(F)F` [Example 63, 6-chloro-N-[5-(2,2-difluoroethoxy)-4,6-dimethoxy-pyrimidin-2-yl]-7-(6-methylpyridazin-3-yl)-1H-indole-3-sulfonamidemide], the IC50 was 45 nM.

As for `COc1nc(NS(=O)(=O)c2c[nH]c3c(-c4nccnc4Cl)c(Cl)ccc23)nc(OC)c1OC(F)F` [Example 64, 6-chloro-7-(3-chloropyrazin-2-yl)-N-[5-(difluoromethoxy)-4,6-dimethoxy-pyrimidin-2-yl]-1H-indole-3-sulfonamide], the concentration for half-maximal inhibition (IC50) was 35 nM.

For the compound `COc1nc(NS(=O)(=O)c2c[nH]c3c(-c4nccnc4Cl)c(Cl)ccc23)nc(OC)c1CC(F)F` [Example 65, 6-chloro-7-(3-chloropyrazin-2-yl)-N-[5-(2,2-difluoroethyl)-4,6-dimethoxy-pyrimidin-2-yl]-1H-indole-3-sulfonamide], the IC50 came to 39 nM.

Regarding `COc1nc(NS(=O)(=O)c2c[nH]c3c(-c4nccnc4Cl)c(Cl)ccc23)nc(OC)c1OCC(F)F` [Example 66, 6-chloro-7-(3-chloropyrazin-2-yl)-N-[5-(2,2-difluoroethoxy)-4,6-dimethoxy-pyrimidin-2-yl]-1H-indole-3-sulfonamide], the half-maximal inhibitory concentration (IC50) was 55 nM.

For `COc1nc(NS(=O)(=O)c2c[nH]c3c(-c4ccn(C)n4)c(Cl)ccc23)nc(OC)c1OC(F)F` [Example 67, 6-chloro-N-[5-(difluoromethoxy)-4,6-dimethoxy-pyrimidin-2-yl]-7-(1-methylpyrazol-3-yl)-1H-indole-3-sulfonamide], the IC50 was determined as 24 nM.

With `COc1nc(NS(=O)(=O)c2c[nH]c3c(-c4ccn(C)n4)c(Cl)ccc23)nc(OC)c1OCCF` [Example 68, 6-chloro-N-[5-(2-fluoroethoxy)-4,6-dimethoxy-pyrimidin-2-yl]-7-(1-methylpyrazol-3-yl)-1H-indole-3-sulfonamide], the IC50 amounted to 18 nM.

In the case of `COc1nc(NS(=O)(=O)c2c[nH]c3c(-c4cnn(C)c4)c(Br)ccc23)nc(OC)c1OCC(F)F` [Example 69, 6-bromo-N-[5-(2,2-difluoroethoxy)-4,6-dimethoxy-pyrimidin-2-yl]-7-(1-methylpyrazol-4-yl)-1H-indole-3-sulfonamide], the 50% inhibitory concentration (IC50) stood at 56 nM.

Consider `COc1nc(NS(=O)(=O)c2c[nH]c3c(-c4ccccc4)c(Cl)ccc23)nc(OC)c1OCC(F)F` [Example 70, 6-chloro-N-[5-(2,2-difluoroethoxy)-4,6-dimethoxy-pyrimidin-2-yl]-7-phenyl-1H-indole-3-sulfonamide], for which the IC50 was 102 nM.

`COc1nc(NS(=O)(=O)c2c[nH]c3c(-c4ccccc4)c(Cl)ccc23)nc(OC)c1CC(F)F` [Example 71, 6-chloro-N-[5-(2,2-difluoroethyl)-4,6-dimethoxy-pyrimidin-2-yl]-7-phenyl-1H-indole-3-sulfonamide]: the IC50 was determined as 99 nM.

As to `COc1nc(NS(=O)(=O)c2c[nH]c3c(-c4ncccn4)cccc23)nc(OC)c1OCC(F)F` [Example 72, N-[5-(2,2-difluoroethoxy)-4,6-dimethoxy-pyrimidin-2-yl]-7-(2-pyrimidyl)-1H-indole-3-sulfonamide], the IC50 is 1420 nM.

As for `COc1nc(NS(=O)(=O)c2c[nH]c3c(-c4nccnc4C)c(Cl)ccc23)nc(OC)c1OCC(F)F` [Example 73, 6-chloro-N-[5-(2,2-difluoroethoxy)-4,6-dimethoxy-pyrimidin-2-yl]-7-(3-methylpyrazin-2-yl)-1H-indole-3-sulfonamide], the IC50 amounted to 37 nM.

Turning to `COc1nc(NS(=O)(=O)c2c[nH]c3c(-c4nccnc4C)c(Cl)ccc23)nc(OC)c1CC(F)F` [Example 74, 6-chloro-N-[5-(2,2-difluoroethyl)-4,6-dimethoxy-pyrimidin-2-yl]-7-(3-methylpyrazin-2-yl)-1H-indole-3-sulfonamide], the IC50 came out at 19 nM.

On to `COc1nc(NS(=O)(=O)c2c[nH]c3c(-c4ncccn4)c(Cl)ccc23)nc(OC)c1Br` [Example 75, N-(5-bromo-4,6-dimethoxy-pyrimidin-2-yl)-6-chloro-7-(2-pyrimidyl)-1H-indole-3-sulfonamide], for which the half-maximal inhibitory concentration (IC50) was found to be 135 nM.

For `COc1nc(NS(=O)(=O)c2c[nH]c3c(-c4ccncn4)c(Cl)ccc23)nc(OC)c1CC(F)F` [Example 76, 6-chloro-N-[5-(2,2-difluoroethyl)-4,6-dimethoxy-pyrimidin-2-yl]-7-(4-pyrimidyl)-1H-indole-3-sulfonamide], the concentration for half-maximal inhibition (IC50) came to 21 nM.

For the compound `COc1nc(NS(=O)(=O)c2c[nH]c3c(-c4ccncn4)c(Cl)ccc23)nc(OC)c1OCC(F)F` [Example 77, 6-chloro-N-[5-(2,2-difluoroethoxy)-4,6-dimethoxy-pyrimidin-2-yl]-7-(4-pyrimidyl)-1H-indole-3-sulfonamide], the half-maximal inhibitory concentration (IC50) turned out to be 24 nM.

As to `COc1nc(NS(=O)(=O)c2c[nH]c3c(-c4ncccn4)c(Cl)ccc23)nc(OC)c1OCC#N` [Example 78, 6-chloro-N-[5-(cyanomethoxy)-4,6-dimethoxy-pyrimidin-2-yl]-7-(2-pyrimidyl)-1H-indole-3-sulfonamide], the half-maximal inhibitory concentration (IC50) amounted to 122 nM.

As for `COc1nc(NS(=O)(=O)c2c[nH]c3c(-c4ncccn4)c(Cl)ccc23)nc(OC)c1CCC#N` [Example 79, 6-chloro-N-[5-(2-cyanoethyl)-4,6-dimethoxy-pyrimidin-2-yl]-7-(2-pyrimidyl)-1H-indole-3-sulfonamide], the IC50 is 59 nM.

For the compound `COc1nc(NS(=O)(=O)c2c[nH]c3c(-c4ncccn4)c(Cl)ccc23)ncc1OCCF` [Example 80, 6-chloro-N-[5-(2-fluoroethoxy)-4-methoxy-pyrimidin-2-yl]-7-(2-pyrimidyl)-1H-indole-3-sulfonamide], the IC50 is 260 nM.

Consider `COc1nc(NS(=O)(=O)c2c[nH]c3c(-c4nccnc4C)c(Cl)ccc23)nc(OC)c1OC(F)F` [Example 81, 6-chloro-N-[5-(difluoromethoxy)-4,6-dimethoxy-pyrimidin-2-yl]-7-(3-methylpyrazin-2-yl)-1H-indole-3-sulfonamide], for which the half-maximal inhibitory concentration (IC50) turned out to be 31 nM.
